Source: patent US6608069B1, “Phenyl xanthine derivatives” (SmithKline Beecham Corporation, priority 1998, dated 2003)

Legend:
[1] = tested on: cytokine-stimulated human umbilical vein endothelial cells; experiment: Cell Adhesion Assay: adherence of fluorescently-labelled leukocytes to endothelial cell monolayers; assay type: cell-based; conditions: inhibition of cytokine-stimulated adhesion minus basal adhesion; calcein-AM labelled leukocytes on HUVEC monolayers
Summary of the method: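 HUVEC monolayers were stimulated with cytokine, and adhesion of calcein-AM-labelled leukocytes was quantified by fluorescence. Inhibition was calculated on cytokine-stimulated adhesion after subtracting basal adhesion of unstimulated cells.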

[2] = tested on: male Lewis rats; experiment: Carrageenan Pleurisy Assay; assay type: in vivo; conditions: carrageenan 0.075 mg/rat, harvested four hours after carrageenan; for % Inhibition Cells: inflammatory cells (neutrophils) in pleural exudate vs vehicle control; for % Inhibition Exudate: pleural edema (exudate) vs vehicle control
Protocol: 2) Carrageenan Pleurisy Assay
The antiinflammatory activity of compounds of the invention was determined by the procedure of Vinegar, R, et al., Proc. Soc. Exp. Biol. Med., 1981, 168, 24-32, using male Lewis rats of 150±20 grams. The carrageenan dose was 0.075 mg/rat. Pleural exudate was harvested four hours after injection of carrageenan. Acute antiinflammatory activity was determined by inhibition of pleural edema and inflammatory cells (neutrophils) from a negative (vehicle) control group.

SMILES | melting point [°C] | IC50 [1] [nM] | % Inhibition Cells [2] [%] | % Inhibition Exudate [2] [%]
O=C(O)/C=C/c1ccc(-c2nc3c(=O)n(CC4CC5CCC4C5)c(=O)n(CC4CC5CCC4C5)c3[nH]2)cc1 (centres unmarked) [Example 12, (E)-4-(1,3-bis(bicyclo(2.2.1)hept-2-ylmethyl)-1,2,3,6-tetrahydro-2,6-dioxo-9H-purin-8-yl)cinnamic Acid] | > 250 | – | – | –
O=C(O)/C=C/c1ccc(-c2nc3c(=O)n(Cc4ccccc4)c(=S)n(Cc4ccccc4)c3[nH]2)cc1 [Example 17, (E)-4-(1,3-bis(benzyl)-1,2,3,6-tetrahydro-2-thioxo-6-oxo-9H-purin-8-yl)cinnamic Acid] | > 350 | – | – | –
O=C(O)/C=C/c1ccc(-c2nc3c(=O)n(Cc4cccc(F)c4)c(=O)n(Cc4cccc(F)c4)c3[nH]2)cc1 [Example 20, (E)-4-(1,3-bis(3-fluorobenzyl)-1,2,3,6-tetrahydro-2,6-dioxo-9H-purin-8-yl)cinnamic Acid] | > 300 | – | – | –
O=C(O)/C=C/c1ccc(-c2nc3c(=O)n(Cc4ccccc4F)c(=O)n(Cc4ccccc4F)c3[nH]2)cc1 [Example 21, (E)-4-(1,3-bis(2-fluorobenzyl)-1,2,3,6-tetrahydro-2,6-dioxo-9H-purin-8-yl)cinnamic Acid] | > 350 | – | – | –
O=C(O)/C=C/c1ccc(-c2nc3c(=O)n(CCc4ccccc4)c(=O)n(CCc4ccccc4)c3[nH]2)cc1 [Example 22, (E)-4-(1,3-bis(2-phenylethyl)-1,2,3,6-tetrahydro-2,6-dioxo-9H-purin-8-yl)cinnamic Acid] | > 350 | – | – | –
COCCOCCOCCOCCOCCOCCOCCOCCOCCOC(=O)/C=C/c1ccc(-c2nc3c(=O)n(Cc4ccccc4)c(=O)n(Cc4ccccc4)c3[nH]2)cc1 [Example 34] | – | < 0.1 | 20 | 59
COCCOCCOCCOCCOCCOCCOCCOCCOCCOC(=O)/C=C/c1ccc(-c2nc3c(=O)n(CC4CCCC4)c(=O)n(CC4CCCC4)c3[nH]2)cc1 [Example 36, (E)-4-(1,3-bis(cyclopentylmethyl)-1,2,3,6-tetrahydro-2,6-dioxo-9H-purin-8-yl)cinnamic Acid Nonaethylene Glycol Methyl Ether Ester] | – | 11 ± 8 | 47 | 38
CCCn1c(=O)c2nc(-c3ccc(/C=C/C(=O)OCCOCCOCCOCCOCCOCCOCCOCCOCCOC)cc3)[nH]c2n(CC2CCCCC2)c1=O [Example 44, (E)-4-((1-propyl-3-cyclohexylmethyl)-1,2,3,6-tetrahydro-2,6-dioxo-9H-purin-8-yl)cinnamic Acid Nonaethylene Glycol Methyl Ether Ester] | – | 20 ± 10 | 44 | 24
CCCn1c(=O)n(CC2CCCCC2)c(=O)c2nc(-c3ccc(/C=C/C(=O)OCCOCCOCCOCCOCCOCCOCCOCCOCCOC)cc3)[nH]c21 [Example 49, (E)-4-((1-cyclohexylmethyl-3-propyl)-1,2,3,6-tetrahydro-2,6-dioxo-9H-purin-8-yl)cinnamic Acid Nonaethylene Glycol Methyl Ether Ester] | – | 13 ± 9 | 28 | 53
COCCOCCOCCOCCOCCOCCOCCOCCOCCN(C)C(=O)/C=C/c1ccc(-c2nc3c(=O)n(CC4CCCCC4)c(=O)n(CC4CCCCC4)c3[nH]2)cc1 [Example 68, (E)-4-(1,3-Bis(cyclohexylmethyl)-1,2,3,6-tetrahydro-2,6-dioxo-9H-purin-8-yl) cinnamic Acid N-methyl Nonaethylene Glycol Methyl Ether Amide] | – | 72 ± 19 | 92 | 80
CCCn1c(=O)c2nc(-c3ccc(/C=C/C(=O)NCCOCCOCCOCCOCCOCCOCCOCCOCCOC)cc3)[nH]c2n(CC2CCCCC2)c1=O [Example 73, (E)-4-((1-propyl-3-cyclohexylmethyl)-1,2,3,6-tetrahydro-2,6-dioxo-9H-purin-8-yl)cinnamic Acid Nonaethylene Glycol Methyl Ether Amide] | – | > 1000 | 0 | 0
